Where a chain is given by its changes, count along the chain named. Several values for one entry are separate records, joined by “and”; a condition that tells them apart may be missing. Equal values may be shown once. Entries after “also recorded” stand apart in the source; their conditions may differ.
Tests used:
[1] = test system: DHT mediated AR transcription in LNCaP cells; assay: Transcriptional activation luciferase assay; format: cell-based, human; conditions: 10 μM compound, 10 nM DHT, 24 h
[2] = biological target: T1, full-length and truncated AR (AR-3) (Homo sapiens, UniProt P10275); assay: Western blot analysis of fAR and tAR-3 expression in CWR22Rv1 cells; conditions: 15 μM, 24 h
T1 sequence (P10275 1-920): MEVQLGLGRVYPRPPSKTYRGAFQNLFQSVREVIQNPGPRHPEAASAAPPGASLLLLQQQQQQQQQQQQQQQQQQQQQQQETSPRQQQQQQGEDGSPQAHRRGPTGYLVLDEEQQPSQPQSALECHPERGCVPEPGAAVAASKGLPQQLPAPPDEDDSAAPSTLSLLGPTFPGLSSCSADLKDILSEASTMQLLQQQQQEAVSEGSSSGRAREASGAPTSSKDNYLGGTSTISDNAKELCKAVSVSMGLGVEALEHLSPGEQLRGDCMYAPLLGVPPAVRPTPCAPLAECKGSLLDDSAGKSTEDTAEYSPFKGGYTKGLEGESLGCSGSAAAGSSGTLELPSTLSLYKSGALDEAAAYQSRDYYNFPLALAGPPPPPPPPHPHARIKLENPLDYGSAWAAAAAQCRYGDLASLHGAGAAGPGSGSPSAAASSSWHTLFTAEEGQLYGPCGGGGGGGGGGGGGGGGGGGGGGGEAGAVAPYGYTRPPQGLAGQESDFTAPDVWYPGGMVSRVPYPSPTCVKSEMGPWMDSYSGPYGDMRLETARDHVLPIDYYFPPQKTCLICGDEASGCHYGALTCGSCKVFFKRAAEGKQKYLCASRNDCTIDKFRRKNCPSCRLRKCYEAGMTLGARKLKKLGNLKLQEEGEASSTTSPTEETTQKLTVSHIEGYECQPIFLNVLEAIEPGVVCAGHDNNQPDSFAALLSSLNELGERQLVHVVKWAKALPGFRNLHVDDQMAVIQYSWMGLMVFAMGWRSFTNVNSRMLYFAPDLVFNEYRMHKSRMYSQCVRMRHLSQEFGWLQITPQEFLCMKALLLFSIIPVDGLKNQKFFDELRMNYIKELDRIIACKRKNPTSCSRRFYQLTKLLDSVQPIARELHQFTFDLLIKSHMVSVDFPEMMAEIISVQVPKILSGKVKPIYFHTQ

[3] = Solubility in ethanol or DMSO; format: physicochemical; conditions: prevented biological testing
[4] = test system: LNCaP cells; assay: Cell growth inhibition; format: cell-based, human
[5] = biological target: T2, AR (Homo sapiens, UniProt P10275, T878A); format: cell-based; conditions: LNCaP cells, 15 μM, 24 h, Western blot
T2 sequence (P10275 1-920 T878A): T1 sequence (P10275 1-920) with T878A

[6] = biological target: T2, AR; assay: Immunocytochemical analysis of AR expression in LNCaP cells; conditions: 5 μM, 48 h

## C[C@]12CCC(=NO)C=C1CC[C@@H]1[C@@H]2CC[C@]2(C)C(n3cnc4ccccc43)=CC[C@@H]12 (mixture of isomers) [Compound 36, 3-((EZ)-Hydroximino)-17-(1H-Benzimidazol-1-yl)-androsta-4,16-diene]
[1]
  inhibition of DHT mediated transcription: 65–100%
[2]
  effect on full-length and truncated AR (AR-3) expression: could degrade both full-length and truncated AR; also recorded: significant down-regulation of both full-length and truncated AR

## C[C@]12CC/C(=N\Oc3ccccc3)C=C1CC[C@@H]1[C@@H]2CC[C@]2(C)C(n3cnc4ccccc43)=CC[C@@H]12 (mixture of isomers) [Compound 37, 3-((EZ)-O-Phenyloxime)-17-(1H-Benzimidazol-1-yl)-androsta-4,16-diene]
[3]
  solubility in ethanol or DMSO: limited solubility in ethanol or DMSO

## CO/N=C1/C=C2CC[C@@H]3[C@H](CC[C@]4(C)C(n5cnc6ccccc65)=CC[C@@H]34)[C@@]2(C)CC1 (mixture of isomers) [Compound 38, 3-((EZ)-O-Methyloxime)-17-(1H-Benzimidazol-1-yl)-androsta-4,16-diene]
[1]
  inhibition of DHT mediated transcription: 65–100%

## C[C@]12CC/C(=N\OCc3ccccc3)C=C1CC[C@@H]1[C@@H]2CC[C@]2(C)C(n3cnc4ccccc43)=CC[C@@H]12 (mixture of isomers) [Compound 39, 3-((EZ)-(O-Phenylmethyl)oxime)-17-(1H-Benzimidazol-1-yl)-androsta-4,16-diene]
[1]
  inhibition of DHT mediated transcription: 65–100%

## C[C@]12CC[C@H](O)CC1=CC[C@@H]1[C@@H]2CC[C@]2(C)C(n3cnc4cc(C#N)ccc43)=CC[C@@H]12 [Compound 18, 3β-Hydroxy-17-(5(6)-nitrile-1H-benzimidazol-1-yl)-androsta-5,16-diene]
[4]; read-out: GI50, C-17 modified compounds, MTT, 7 days, at least three independent experiments, SEM < 10%
  GI50: 2810 nM
[5]
  effect on AR protein expression (AR degradation / ARD activity): diminished AR down-regulation (ARD) activity

## COc1ccc2ncn(C3=CC[C@H]4[C@@H]5CC=C6C[C@@H](O)CC[C@]6(C)[C@H]5CC[C@]34C)c2c1 [Compound 19, 3β-Hydroxy-17-(6-methoxy-1H-benzimidazol-1-yl)-androsta-5,16-diene]
[5]
  effect on AR protein expression (AR degradation / ARD activity): no modulation of ARDA

## CC(C)CCNCC1=C(n2cnc3ccccc32)[C@@]2(C)CC[C@H]3[C@@H](CC=C4C[C@@H](O)CC[C@@]43C)[C@@H]2C1 [Compound 25, 3β-Hydoxy-17-(1H-benzimidazol-1-yl)-16-((isopentylamino)methyl)-androsta-5,16-diene]
[1]
  inhibition of DHT mediated transcription: 65–100%
[5]
  effect on AR protein expression (AR degradation / ARD activity): significant loss of ARD

## C[C@]12CC[C@H](O)CC1=CC[C@@H]1[C@@H]2CC[C@]2(C)C(n3cnc4ccccc43)=C(CNc3ccccc3)C[C@@H]12 [Compound 28, 3β-Hydoxy-17-(1H-benzimidazol-1-yl)-16-((phenylamino)methyl)-androsta-5,16-diene]
[1]
  inhibition of DHT mediated transcription: 65–100%
[5]
  effect on AR protein expression (AR degradation / ARD activity): significant loss of ARD

## COc1ccc(NCC2=C(n3cnc4ccccc43)[C@@]3(C)CC[C@H]4[C@@H](CC=C5C[C@@H](O)CC[C@@]54C)[C@@H]3C2)cc1OC [Compound 31, 3β-Hydoxy-17-(1H-benzimidazol-1-yl)-16-(((3,4-dimethoxyphenyl)amino)methyl)-androsta-5,16-diene]
[5]
  effect on AR protein expression (AR degradation / ARD activity): significant loss of ARD
[2]
  effect on full-length and truncated AR (AR-3) expression: significant down-regulation of both full-length and truncated AR

## C[C@]12CC[C@H](OS(C)(=O)=O)CC1=CC[C@@H]1[C@@H]2CC[C@]2(C)C(n3cnc4ccccc43)=CC[C@@H]12 [Compound 34, 3β-Mesyloxy-17-(1H-benzimidazol-1-yl)-androsta-5,16-dien]
[1]
  inhibition of DHT mediated transcription: 65–100%

## C[C@]12CC[C@H](OC(=O)c3ccccn3)CC1=CC[C@@H]1[C@@H]2CC[C@]2(C)C(n3cnc4ccccc43)=CC[C@@H]12 [Compound 41, 3β-(Pyridine-2-carboxylate)-17-(1H-benzimidazol-1-yl)-androsta-5,16-diene]
[3]
  solubility in ethanol or DMSO: limited solubilities in ethanol or DMSO

## C[C@]12CC[C@H](OC(=O)c3cccnc3)CC1=CC[C@@H]1[C@@H]2CC[C@]2(C)C(n3cnc4ccccc43)=CC[C@@H]12 [Compound 42, 3β-(Pyridine-3-carboxylate)-17-(1H-benzimidazol-1-yl)-androsta-5,16-diene]
[3]
  solubility in ethanol or DMSO: limited solubilities in ethanol or DMSO

## C[C@]12CC[C@H](OC(=O)c3ccncc3)CC1=CC[C@@H]1[C@@H]2CC[C@]2(C)C(n3cnc4ccccc43)=CC[C@@H]12 [Compound 43, 3β-(Pyridine-4-carboxylate)-17-(1H-benzimidazol-1-yl)-androsta-5,16-diene]
[2]
  effect on full-length and truncated AR (AR-3) expression: could degrade both full-length and truncated AR

## C[C@]12CC[C@H](OC(=O)n3ccnc3)CC1=CC[C@@H]1[C@@H]2CC[C@]2(C)C(n3cnc4ccccc43)=CC[C@@H]12 [Compound 47, 3β-(1H-Imidazole-1-carboxylate)-17-(1H-benzimidazol-1-yl)-androsta-5,16-diene]
[4]; from GI50
  fold more potent than compound 5, anti-proliferative activity: 4 fold and ~ 4 fold
[1]
  inhibition of DHT mediated transcription: 65–100%
[5]
  effect on AR protein expression (AR degradation / ARD activity): most potent
[6]
  AR levels in the nucleus: significant decrease in AR levels in the nucleus
[2]
  effect on full-length and truncated AR (AR-3) expression: could degrade both full-length and truncated AR; also recorded: significant down-regulation of both full-length and truncated AR

## Cc1nccn1C(=O)O[C@H]1CC[C@@]2(C)C(=CC[C@@H]3[C@@H]2CC[C@]2(C)C(n4cnc5ccccc54)=CC[C@@H]32)C1 [Compound 48, 3β-(2-Methyl-1H-imidazole-1-carboxylate)-17-(1H-benzimidazol-1-yl)-androsta-5,16-diene]
[4]; from GI50
  fold decrease in anti-proliferative activity relative to 47: 6 fold

## C[C@]12CC[C@H](OC(=O)n3cncn3)CC1=CC[C@@H]1[C@@H]2CC[C@]2(C)C(n3cnc4ccccc43)=CC[C@@H]12 [Compound 49, 3β-(1H-1,2,4-Triazole-1-carboxylate)-17-(1H-benzimidazol-1-yl)-androsta-5,16-diene]
[5]
  effect on AR protein expression (AR degradation / ARD activity): significant up-regulation of AR

From publication PMC3959744 (Journal of medicinal chemistry, 2013)
